From ChEMBL document CHEMBL2163207, “Predicting new indications for approved drugs using a proteochemometric method” (J Med Chem, 2012) come the findings set out here.

Series [1] concerns the target T1, Cadherin-11 (Mus musculus) (UniProt P55288).
T1 sequence (whole entry): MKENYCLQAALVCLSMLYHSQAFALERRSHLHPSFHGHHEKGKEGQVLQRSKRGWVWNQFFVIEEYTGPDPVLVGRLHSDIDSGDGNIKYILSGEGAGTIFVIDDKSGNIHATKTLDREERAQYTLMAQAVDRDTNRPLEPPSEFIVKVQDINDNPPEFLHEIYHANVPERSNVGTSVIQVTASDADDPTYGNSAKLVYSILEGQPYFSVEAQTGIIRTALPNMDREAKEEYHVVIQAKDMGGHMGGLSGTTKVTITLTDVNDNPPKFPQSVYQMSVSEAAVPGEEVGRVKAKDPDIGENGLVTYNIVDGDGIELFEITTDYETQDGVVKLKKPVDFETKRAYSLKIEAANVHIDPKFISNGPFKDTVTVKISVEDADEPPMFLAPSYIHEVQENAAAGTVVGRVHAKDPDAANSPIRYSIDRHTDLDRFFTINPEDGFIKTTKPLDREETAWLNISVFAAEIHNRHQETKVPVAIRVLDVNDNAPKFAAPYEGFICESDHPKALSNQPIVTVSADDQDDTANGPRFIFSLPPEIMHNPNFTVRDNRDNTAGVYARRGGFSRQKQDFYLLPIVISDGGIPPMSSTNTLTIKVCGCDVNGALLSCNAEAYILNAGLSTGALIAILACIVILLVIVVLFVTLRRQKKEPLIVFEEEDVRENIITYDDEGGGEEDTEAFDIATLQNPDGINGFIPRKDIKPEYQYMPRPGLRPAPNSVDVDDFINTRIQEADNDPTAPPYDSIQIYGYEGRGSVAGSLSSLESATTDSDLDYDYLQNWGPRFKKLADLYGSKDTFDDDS
Kind of series: Binding affinity to mouse recombinant CDH11 extracellular domain 1-2 by surface plasmon resonance. Background: Surface plasmon resonance follows binding to a sensor surface in real time, without labels.

Another series deals with MDA-MB-231. Kind of series: Cytotoxicity against human MDA-MB-231 cells after 48 hrs by MTS assay. It is filed as functional, cell-based. Conditions: MDA-MB-231, 48 h. (Formazan colour is commonly taken as a measure of viable cells.)
Series [2] relates to Plasma. Kind of series: Plasma concentration in rat. It is filed as ADME, cell-free.
Series [3] relates to Plasma. Kind of series: Plasma concentration in human. The series is classed as ADME, cell-free.

As for `Cc1ccc(C)c(-c2cc(C(F)(F)F)nn2-c2ccc(S(N)(=O)=O)cc2)c1` [DIMETHYL CELECOXIB], the Activity entry in series [1] is “Dose-dependent effect”. In the series with MDA-MB-231, the IC50 (usually the concentration that inhibits the measured activity by half) is 36 µM.

Turning to `Cc1ccc(-c2cc(C(F)(F)F)nn2-c2ccc(S(N)(=O)=O)cc2)cc1` [CELECOXIB], the Activity result in series [1] was “Dose-dependent effect”. The molecule further returned an IC50 with MDA-MB-231 of 40 µM. In addition, the concentration in the series with Plasma [2] and in the series on Plasma [3] was 1000 nM throughout.
